Measured values taken from ChEMBL document CHEMBL1201862, “PubChem BioAssay data set” (2004).
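Values below derive from 48-hour exposures of cells grown in 96-well plates, with endpoints linearly interpolated between the two concentrations bracketing the appropriate inhibition level. GI50 marks 50% less growth.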 Active and inactive are the calls of the source. Rule as the data show it: active = GI50 up to about 1.1 µM and inactive = higher.

Experiments:
Assay in all cases: DTP human tumour cell line panel, 48 h
M14 = test system: M14
SF-295 = test system: SF-295
HCT-15 = test system: HCT-15
KM12 = test system: KM12
DLD-1 = test system: DLD-1
NCI-H23 = test system: NCI-H23
SN12C = test system: SN12C
SF-268 = test system: SF-268
ACHN = test system: ACHN
SK-MEL-2 = test system: SK-MEL-2
COLO 205 = test system: COLO 205
DMS-273 = test system: DMS-273
DMS-114 = test system: DMS-114
HL-60 = test system: HL-60
M19-MEL = test system: M19-MEL
MOLT-4 = test system: MOLT-4
NCI-H226 = test system: NCI-H226
SR = test system: SR
EKVX = test system: EKVX
UO-31 = test system: UO-31
HCT-116 = test system: HCT-116
CCRF-CEM = test system: CCRF-CEM
OVCAR-3 = test system: OVCAR-3
SF-539 = test system: SF-539
SNB-75 = test system: SNB-75
XF498 = test system: XF498
786-0 = test system: 786-0
A549 = test system: A549
K562 = test system: K562
NCI-H460 = test system: NCI-H460
UACC-257 = test system: UACC-257
RXF 631 = test system: RXF 631
HOP-18 = test system: HOP-18
UACC-62 = test system: UACC-62
SK-MEL-28 = test system: SK-MEL-28
SNB-19 = test system: SNB-19
HCC 2998 = test system: HCC 2998
SW-620 = test system: SW-620
OVCAR-8 = test system: OVCAR-8
HOP-92 = test system: HOP-92
Malme-3M = test system: Malme-3M
U-251 = test system: U-251
CAKI-1 = test system: CAKI-1
HT-29 = test system: HT-29
NCI-H522 = test system: NCI-H522
OVCAR-4 = test system: OVCAR-4
RPMI-8226 = test system: RPMI-8226
LXFL 529 = test system: LXFL 529
KM-20L2 = test system: KM-20L2
HOP-62 = test system: HOP-62
IGROV-1 = test system: IGROV-1
SK-MEL-5 = test system: SK-MEL-5
LOX IMVI = test system: LOX IMVI
OVCAR-5 = test system: OVCAR-5
TK-10 = test system: TK-10
A498 = test system: A498
RXF 393 = test system: RXF 393
SK-OV-3 = test system: SK-OV-3
SNB-78 = test system: SNB-78

CC(=O)NC(CCCCNC(=O)N(CCCl)N=O)C(=O)NCc1ccccc1 (configuration not stated)
GI50 (M14): > 100 µM (inactive)
GI50 (SF-295): 55.2 µM (inactive)
GI50 (HCT-15): > 100 µM
GI50 (KM12): > 100 µM (inactive)
GI50 (DLD-1): > 100 µM (inactive)
GI50 (NCI-H23): > 100 µM (inactive)
GI50 (SN12C): > 100 µM (inactive)
GI50 (SF-268): 17.9 µM (inactive)
GI50 (ACHN): > 100 µM (inactive)
GI50 (SK-MEL-2): > 100 µM (inactive)
GI50 (COLO 205): > 100 µM (inactive)
GI50 (DMS-273): > 100 µM (inactive)
GI50 (DMS-114): > 100 µM (inactive)
GI50 (HL-60): > 100 µM (inactive)
GI50 (M19-MEL): > 100 µM (inactive)
GI50 (MOLT-4): > 100 µM (inactive)
GI50 (NCI-H226): > 100 µM (inactive)
GI50 (SR): 91.6 µM (inactive)
GI50 (EKVX): > 100 µM (inactive)
GI50 (UO-31): > 100 µM (inactive)
GI50 (HCT-116): > 100 µM (inactive)
GI50 (CCRF-CEM): > 100 µM (inactive)
GI50 (OVCAR-3): > 100 µM (inactive)
GI50 (SF-539): 29 µM (inactive)
GI50 (SNB-75): 27.2 µM (inactive)
GI50 (XF498): > 100 µM (inactive)
GI50 (786-0): 35.9 µM (inactive)
GI50 (A549): > 100 µM (inactive)
GI50 (K562): > 100 µM (inactive)
GI50 (NCI-H460): 28.6 µM (inactive)
GI50 (UACC-257): > 100 µM (inactive)
GI50 (RXF 631): > 100 µM (inactive)
GI50 (HOP-18): > 100 µM (inactive)
GI50 (UACC-62): > 100 µM (inactive)
GI50 (SK-MEL-28): > 100 µM (inactive)
GI50 (SNB-19): > 100 µM (inactive)
GI50 (HCC 2998): > 100 µM (inactive)
GI50 (SW-620): > 100 µM (inactive)
GI50 (OVCAR-8): > 100 µM (inactive)
GI50 (HOP-92): > 100 µM (inactive)
GI50 (Malme-3M): > 100 µM (inactive)
GI50 (U-251): 61.7 µM (inactive)
GI50 (CAKI-1): > 100 µM (inactive)
GI50 (HT-29): > 100 µM (inactive)
GI50 (NCI-H522): > 100 µM (inactive)
GI50 (OVCAR-4): > 100 µM (inactive)
GI50 (RPMI-8226): > 100 µM (inactive)
GI50 (LXFL 529): > 100 µM (inactive)
GI50 (KM-20L2): > 100 µM (inactive)
GI50 (HOP-62): > 100 µM (inactive)
GI50 (IGROV-1): 51.8 µM (inactive)

CC(CNCCCNCCNCCCNCO)[N+](=O)[O-] (configuration not stated)
GI50 (M14): 11.4 µM (inactive)
GI50 (SF-295): > 100 µM (inactive)
GI50 (HCT-15): 10.8 µM
GI50 (KM12): 16.1 µM (inactive)
GI50 (DLD-1): 3.63 µM (inactive)
GI50 (NCI-H23): 15 µM (inactive)
GI50 (SN12C): 15.1 µM (inactive)
GI50 (SF-268): 15.7 µM (inactive)
GI50 (SK-MEL-5): 16.3 µM (inactive)
GI50 (ACHN): 16.7 µM (inactive)
GI50 (SK-MEL-2): 15.5 µM (inactive)
GI50 (COLO 205): 6.52 µM (inactive)
GI50 (DMS-273): 16.5 µM (inactive)
GI50 (DMS-114): 16.6 µM (inactive)
GI50 (HL-60): 3.89 µM (inactive)
GI50 (LOX IMVI): 14.4 µM (inactive)
GI50 (MOLT-4): 4.12 µM (inactive)
GI50 (OVCAR-5): 13.9 µM (inactive)
GI50 (TK-10): 2.49 µM (inactive)
GI50 (SR): 3.39 µM (inactive)
GI50 (EKVX): 16 µM (inactive)
GI50 (UO-31): 16.9 µM (inactive)
GI50 (HCT-116): 10.8 µM (inactive)
GI50 (CCRF-CEM): 2.75 µM (inactive)
GI50 (OVCAR-3): 16.5 µM (inactive)
GI50 (SF-539): 15.4 µM (inactive)
GI50 (SNB-75): 20.8 µM (inactive)
GI50 (XF498): 16.1 µM (inactive)
GI50 (786-0): 15.7 µM (inactive)
GI50 (A549): 21.9 µM (inactive)
GI50 (K562): 3.44 µM (inactive)
GI50 (NCI-H460): 17.2 µM (inactive)
GI50 (UACC-257): 13.3 µM (inactive)
GI50 (A498): 17.5 µM (inactive)
GI50 (RXF 631): 16 µM (inactive)
GI50 (RXF 393): 15.8 µM (inactive)
GI50 (SK-OV-3): > 100 µM (inactive)
GI50 (HOP-18): 14.7 µM (inactive)
GI50 (UACC-62): 16 µM (inactive)
GI50 (SK-MEL-28): 13.6 µM (inactive)
GI50 (SNB-19): > 100 µM (inactive)
GI50 (HCC 2998): 16.6 µM (inactive)
GI50 (SW-620): 3.6 µM (inactive)
GI50 (OVCAR-8): 14.4 µM (inactive)
GI50 (HOP-92): 2.65 µM (inactive)
GI50 (Malme-3M): 2.07 µM (inactive)
GI50 (U-251): 15.9 µM (inactive)
GI50 (SNB-78): 20.6 µM (inactive)
GI50 (CAKI-1): 6.11 µM (inactive)
GI50 (HT-29): 21.3 µM (inactive)
GI50 (OVCAR-4): 14.5 µM (inactive)
GI50 (RPMI-8226): 5.06 µM (inactive)
GI50 (LXFL 529): 3.99 µM (inactive)
GI50 (KM-20L2): 16.9 µM (inactive)
GI50 (HOP-62): > 100 µM (inactive)
GI50 (IGROV-1): 20.4 µM (inactive)

Cc1ccc(N2C(=O)C(Cl)=C(Cl)C2=O)cc1
GI50 (M14): 19.2 µM (inactive)
GI50 (SF-295): 71.8 µM (inactive)
GI50 (HCT-15): 19.2 µM
GI50 (KM12): 20.5 µM (inactive)
GI50 (DLD-1): 20.9 µM (inactive)
GI50 (NCI-H23): 20.7 µM (inactive)
GI50 (SN12C): 18.7 µM (inactive)
GI50 (SF-268): 17.9 µM (inactive)
GI50 (SK-MEL-5): 40.9 µM (inactive)
GI50 (ACHN): 19.6 µM (inactive)
GI50 (SK-MEL-2): > 100 µM (inactive)
GI50 (COLO 205): 16.1 µM (inactive)
GI50 (DMS-273): 62.5 µM (inactive)
GI50 (DMS-114): 19 µM (inactive)
GI50 (LOX IMVI): 23.6 µM (inactive)
GI50 (M19-MEL): 21 µM (inactive)
GI50 (MOLT-4): 16.4 µM (inactive)
GI50 (OVCAR-5): 18 µM (inactive)
GI50 (NCI-H226): > 100 µM (inactive)
GI50 (SR): 21.3 µM (inactive)
GI50 (EKVX): 21.5 µM (inactive)
GI50 (UO-31): 31.7 µM (inactive)
GI50 (HCT-116): 17 µM (inactive)
GI50 (CCRF-CEM): 5.11 µM (inactive)
GI50 (OVCAR-3): 16.9 µM (inactive)
GI50 (SF-539): 25.2 µM (inactive)
GI50 (SNB-75): 22.5 µM (inactive)
GI50 (786-0): 17.3 µM (inactive)
GI50 (A549): 37.6 µM (inactive)
GI50 (K562): 18.7 µM (inactive)
GI50 (NCI-H460): > 100 µM (inactive)
GI50 (UACC-257): 19.1 µM (inactive)
GI50 (A498): > 100 µM (inactive)
GI50 (RXF 631): 21.1 µM (inactive)
GI50 (RXF 393): 12.5 µM (inactive)
GI50 (SK-OV-3): 44 µM (inactive)
GI50 (HOP-18): 19 µM (inactive)
GI50 (UACC-62): > 10 µM (inactive)
GI50 (SK-MEL-28): 16.5 µM (inactive)
GI50 (SNB-19): > 100 µM (inactive)
GI50 (HCC 2998): 34.4 µM (inactive)
GI50 (SW-620): 19.7 µM (inactive)
GI50 (HOP-92): 18.2 µM (inactive)
GI50 (Malme-3M): 18.7 µM (inactive)
GI50 (U-251): 38.3 µM (inactive)
GI50 (SNB-78): 24.2 µM (inactive)
GI50 (CAKI-1): 17.1 µM (inactive)
GI50 (HT-29): 19.1 µM (inactive)
GI50 (NCI-H522): 13 µM (inactive)
GI50 (OVCAR-4): 19.2 µM (inactive)
GI50 (RPMI-8226): 18.8 µM (inactive)
GI50 (LXFL 529): 19.1 µM (inactive)
GI50 (KM-20L2): 24.2 µM (inactive)
GI50 (HOP-62): 30.1 µM (inactive)
GI50 (IGROV-1): 20.8 µM (inactive)
